According to ChEMBL document CHEMBL3988442, “University of Dundee, Small-Polar-MMV Screening Library” (2021):
pIC50: −log10 of the molar value. Values joined by “and” are separate entries in the source; they are usually repeats but may differ in a detail not shown here. Identical values can stand only once.

Target: T1, Histidine--tRNA ligase (Leishmania infantum, UniProt A4I591)
T1 sequence (A4I591 whole entry): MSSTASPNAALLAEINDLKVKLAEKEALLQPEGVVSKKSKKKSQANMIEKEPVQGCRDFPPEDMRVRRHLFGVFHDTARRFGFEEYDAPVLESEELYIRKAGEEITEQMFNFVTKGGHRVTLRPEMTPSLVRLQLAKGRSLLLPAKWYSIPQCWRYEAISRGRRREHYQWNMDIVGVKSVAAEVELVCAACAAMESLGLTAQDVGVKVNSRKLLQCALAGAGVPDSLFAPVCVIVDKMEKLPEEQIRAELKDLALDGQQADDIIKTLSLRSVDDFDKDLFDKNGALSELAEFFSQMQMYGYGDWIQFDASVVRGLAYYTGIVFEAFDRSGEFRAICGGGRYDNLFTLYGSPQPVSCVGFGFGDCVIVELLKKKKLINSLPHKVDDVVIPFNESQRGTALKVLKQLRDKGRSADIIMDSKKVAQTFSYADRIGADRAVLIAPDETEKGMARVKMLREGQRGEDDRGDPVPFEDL
Assay: Leishmania infantum Histidine tRNA synthetase (LdHisRS)
Type: functional

pIC50 | Compound
4.57 and 4.69 | NCCc1cccc(CN2CCN(c3ccccc3)C(=O)C2)c1
< 4.00 | CN(C)CCn1c(=O)oc2ccc(NC(=O)N3CCCCCC3)cc21
4.68 and 4.59 | O=C(NC[C@H]1CCCC[C@H]1O)c1ccc2nc(-c3ccco3)[nH]c2c1
4.44 and 4.47 | Cc1nccn1-c1cccc(C2CCCN(C3CCCCC3)C2)n1 (stereo not drawn)
4.30 and 4.29 | COc1ccccc1C1(CNCc2ccc(C#N)cc2)CCOCC1
< 4.00 | O=C(Cc1cnc(-c2c(Cl)cccc2Cl)s1)N1CCOCC1
4.50 and 4.30 | COc1ccc(C(C)=O)cc1CN1CCn2cccc2C1C (stereo not drawn)
4.23 and 4.41 | OC1CCCN(Cc2c(-c3ccco3)[nH]c3ncccc23)C1 (stereo not drawn)
4.26 and 4.09 | CC(c1ccco1)n1cc(-c2cc(CN3CCCC3)cs2)nn1 (stereo not drawn)
4.02 and < 4.00 | CN(C(=O)CN1CCc2nn(C)c(=O)cc2C1)c1nccs1
4.68 and 4.75 | CCCn1nc2c(cc1=O)CN(Cc1ccccn1)CC2
4.87 and 4.96 | CCS(=O)(=O)Nc1ccc2c(c1)C1(CCOCC1)CN2C
< 4.00 | C[C@H](NS(C)(=O)=O)C(=O)NCc1cc(-c2ccco2)n[nH]1
< 4.00 | Cc1noc(C)c1CNc1c(N2CCCC2)cccc1N1CCCC1
4.87 and 4.85 | Cn1cc(NC(=O)Nc2ccccn2)cc(Cl)c1=O
< 4.00 | COCc1ncc(-c2nccn2CCS(C)(=O)=O)cn1
5.07 | Cn1cc(NC(=O)N2CCN(Cc3cscn3)CC2)ccc1=O
< 4.00 | Cc1nn(CCC#N)c(C)c1[C@@H]1C=C[C@@H](NCc2cccc(Cl)c2)C1
4.15 and 4.18 | COCCN1CCC(C)(c2cc(O)[nH]n2)CC1

pIC50 | Compound
4.82 and 4.73 | Cc1nonc1CN(C)c1nc(-c2cccnc2)nc2c1CCNC2
4.20 and 4.26 | O=C(CCN1CCCC1)N1CC[C@@H](c2ccc3ccccc3c2)[C@H](O)C1
4.11 and < 4.00 | Cc1ccccc1CC(C)(C)NC(=O)c1cccc(OCC(N)=O)c1
4.46 and 4.50 | CC(C)c1cc(N2CCC(C(C)N3CCCC3)CC2)n2nccc2n1 (stereo not drawn)
4.73 and 4.71 | O=C1CN(C(=O)c2cc(-c3ccco3)nc3c(Cl)cccc23)CCN1
< 4.00 | Cn1nc2c(cc1=O)CN(Cc1nc(-c3ccccn3)no1)CC2
5.59 and 5.37 | Cn1cc(NC(=O)Nc2cccc3cccnc23)ccc1=O
5.06 and 4.67 | CCN1CC2(CCOCC2)c2cc(NS(=O)(=O)CC)ccc21
< 4.00 | COc1cccn(CC(=O)N(C)Cc2ccoc2)c1=O
4.52 and 4.53 | NC(=O)c1ccc(N2CCCCC2)c(NC(=O)c2cc(Br)ccc2Cl)c1
4.27 and 4.46 | O=C(Cc1csc(-c2ccco2)n1)N1CCN(c2cnccn2)CC1
4.43 and 4.26 | Cc1ccc(CNC(=O)c2nc3c(o2)CN(C(=O)c2cccnc2)C3)o1
4.90 and 4.83 | CC(C)c1ccc(C(=O)O)cc1S(=O)(=O)Nc1ccc(=O)n(C)c1
4.54 and 4.71 | c1cncc(NCCNC2CSCCSC2)c1
4.45 and 4.51 | O=C(Nc1cccn(Cc2ccccc2)c1=O)c1ccncc1F
< 4.00 | Cc1noc(C(C)Nc2ccc(N3CCOCC3)cc2C)n1 (stereo not drawn)
5.41 and 5.48 | COc1cccn(CC(=O)N(C)CCOc2cc(C)cc(C)c2)c1=O
4.06 and 4.09 | CC(C)[C@H](NS(C)(=O)=O)C(=O)NCc1cc(-c2ccco2)n[nH]1
< 4.00 | O=c1c2cnc(N3CCOCC3)nc2ccn1-c1ccccc1

pIC50 | Compound
4.43 and 4.36 | COc1cccc(CN(C)C(=O)CN2CC(n3nc(C)cc3C)C2)c1
4.39 and 4.16 | NC(=O)C1=NC2=NS(=O)(=O)c3ccccc3N2N1Cc1ccc(Br)cc1
< 4.00 | CS(=O)(=O)CCOCCNc1cncc(Br)c1
< 4.00 and 4.07 | CC(=O)Nc1ccc2nc(-c3nccn3C[C@@H]3CCCO3)ccc2c1
4.13 and 4.22 | O=C(CN1CCc2cncnc2C1)NCCOc1ccccc1
< 4.00 | CCC1=NOC(CNCc2cnc(-c3ccccc3C)s2)C1 (stereo not drawn)
4.13 and 4.17 | Cc1nccc(-c2cccc(NCC(=O)N3CCc4sccc4C3)c2)n1
4.41 and 4.31 | CN1CCN(c2cccc(NC(=O)NCc3csc(N(C)C)n3)c2)C1=O
4.17 and 4.15 | O=C(C1CCCCC1)N1C[C@@H]2CCN(c3cnccn3)C[C@@H]2C1
4.61 and 4.51 | Cc1nnc(NCc2ccccc2Cl)c(C#N)c1C
4.80 | CN1CCN(Cc2nnc(C3CCN(C(CO)CO)CC3)n2C)CC1
5.21 and 5.25 | COc1cccc(CN2CCN(CC(C)C)C(=O)C2C)c1O (stereo not drawn)
4.18 and 4.27 | CC(C)C(C)NC(=O)Nc1cccn(C)c1=O (stereo not drawn)
< 4.00 and 4.17 | NC(=O)CCS(=O)(=O)Cc1ccc(OCC(F)(F)F)cc1
< 4.00 | NC(=O)CN1CCN(CC2CC2)c2ccccc21
4.82 and 4.83 | Cn1cccc(NC(=O)N2CCC(CSc3ccccc3)C2)c1=O (stereo not drawn)
4.57 and 4.70 | COc1ccc(C(NCc2cccc(O)c2)C2CC2)cc1 (stereo not drawn)
< 4.00 | Cn1nc2c(cc1=O)CN(CC(=O)Nc1nccs1)CC2
4.65 and 4.62 | COCCN1CCCc2sc(C(=O)NCC3CCCO3)nc21 (stereo not drawn)

Compound | pIC50
CNCCc1nc2cc(F)ccc2[nH]1 | 4.32 and 4.46
